From patent US8415469B2, “Compounds and methods for kinase modulation, and indications therefor” (Plexxikon Inc., priority 2005, dated 2013)

Assays:
Type in all cases: biochemical
Kit = molecular target: T1, Kit (Homo sapiens, UniProt P10721); test: AlphaScreen kinase assay, Kit; conditions: read-out: IC50, activity toward kinase Kit
T1 construct: P1332.N6 BI PTP KIT M552-K948-X COD; His6 (N); made in house; host or cells: E. coli (PTP1B co-expressed)

Ret = molecular target: T2, Ret (Homo sapiens, UniProt P07949); test: AlphaScreen kinase assay, Ret; conditions: read-out: IC50, activity toward kinase Ret
T2 construct: P1378.pET-SF BI-PTP RET H661-R1012 HIS; made in house
T2 sequence (P07949 with tags, fused parts or gaps): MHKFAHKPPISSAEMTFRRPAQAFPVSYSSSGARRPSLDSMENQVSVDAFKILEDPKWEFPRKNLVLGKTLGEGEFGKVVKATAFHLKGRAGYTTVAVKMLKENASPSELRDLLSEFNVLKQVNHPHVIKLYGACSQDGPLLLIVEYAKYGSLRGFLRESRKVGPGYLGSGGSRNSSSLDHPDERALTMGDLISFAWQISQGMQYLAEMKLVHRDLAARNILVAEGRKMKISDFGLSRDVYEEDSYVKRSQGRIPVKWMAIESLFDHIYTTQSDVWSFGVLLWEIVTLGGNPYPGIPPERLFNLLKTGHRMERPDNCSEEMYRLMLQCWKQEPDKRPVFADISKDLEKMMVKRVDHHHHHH

Kdr = molecular target: T3, Kdr (Homo sapiens, UniProt P35968); test: Z'-Lyte FRET kinase assay (Invitrogen), Kdr; conditions: read-out: IC50, activity toward kinase Kdr
T3 construct: purchased Invitrogen (assay run by Invitrogen)

Flt4 = molecular target: T4, Flt4 (Homo sapiens, UniProt P35916); test: AlphaScreen kinase assay, Flt4; conditions: read-out: IC50, activity toward kinase Flt4
T4 construct: purchased ProQinase GmbH (Freiburg, Germany)
Description: AlphaScreen assay was used to screen additional kinases. The assay is similarly dependent on the phosphorylation of a peptide substrate. In this assay, an antibody that recognizes phosphorylated substrate is bound to an acceptor bead. The peptide substrate is attached to biotin, which binds to a donor head that contains streptavidin. Thus phosphorylated substrate is bound by antibody and streptavidin, bringing the donor and acceptor heads into close proximity when kinase is not inhibited. The donor produces singlet oxygen which results in emission from the acceptor when they are in close proximity. Conversely, when kinase is inhibited, the donor and acceptor beads are not associated and the emission from the acceptor is reduced.
AlphaScreen assays were done using compounds dissolved in DMSO to a concentration of 20 mM. The compounds were diluted accordingly to the desired final concentrations in each sample well, using 1:3 serial dilution for a total of 8 concentration points.

FGFR1 = molecular target: T5, FGFR1 (Homo sapiens, UniProt P11362, C488A/C584S); test: AlphaScreen kinase assay, FGFR1; conditions: read-out: IC50, activity toward kinase FGFR
T5 construct: P1351.pET N6 BI-PTP FGFR A458-E765-X C488A, C584S; made in house; host or cells: E. coli (PTP1B co-expressed)

Stk6 = molecular target: T6, Stk6 (Homo sapiens, UniProt O14965); test: Z'-Lyte FRET kinase assay (Invitrogen), Stk6; conditions: read-out: IC50, activity toward kinase Stk6
T6 construct: purchased Invitrogen (Carlsbad, Calif.), screening service
T6 sequence (O14965 1-403): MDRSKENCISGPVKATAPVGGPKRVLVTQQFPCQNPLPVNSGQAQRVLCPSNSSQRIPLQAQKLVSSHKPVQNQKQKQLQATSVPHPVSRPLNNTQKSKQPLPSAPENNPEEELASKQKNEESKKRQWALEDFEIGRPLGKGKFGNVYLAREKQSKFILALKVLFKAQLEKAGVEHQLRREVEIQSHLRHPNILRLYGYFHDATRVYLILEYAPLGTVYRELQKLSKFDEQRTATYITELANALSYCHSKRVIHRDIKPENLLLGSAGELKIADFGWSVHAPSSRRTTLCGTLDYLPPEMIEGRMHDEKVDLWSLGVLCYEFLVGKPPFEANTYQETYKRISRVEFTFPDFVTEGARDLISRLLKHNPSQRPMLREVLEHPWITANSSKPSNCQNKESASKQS

Flt1 = molecular target: T7, Flt1 (Homo sapiens, UniProt P17948); test: AlphaScreen kinase assay, Flt1; conditions: read-out: IC50, activity toward kinase Flt1
T7 construct: P1826.pETN6 BI-PTP FLT1 M799-D1165-X WT; His6 (N); made in house; host or cells: E. coli (PTP1B co-expressed)
T7 sequence (P17948 with tags, fused parts or gaps): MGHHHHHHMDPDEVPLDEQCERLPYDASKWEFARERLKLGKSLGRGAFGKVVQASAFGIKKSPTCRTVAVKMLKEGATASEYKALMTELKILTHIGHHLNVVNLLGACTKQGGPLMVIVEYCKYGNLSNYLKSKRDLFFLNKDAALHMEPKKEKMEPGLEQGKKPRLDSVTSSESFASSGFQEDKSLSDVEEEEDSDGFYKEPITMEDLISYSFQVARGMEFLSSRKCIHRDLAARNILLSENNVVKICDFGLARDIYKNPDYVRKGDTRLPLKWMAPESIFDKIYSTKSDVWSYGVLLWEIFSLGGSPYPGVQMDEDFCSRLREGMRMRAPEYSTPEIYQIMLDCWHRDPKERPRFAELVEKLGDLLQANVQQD

B-Raf V600E = molecular target: T8, B-Raf V600E (Homo sapiens, UniProt P15056, V600E); test: AlphaScreen kinase assay, B-Raf V600E; conditions: read-out: IC50, activity toward kinase B-Raf V600E
T8 construct: P4254. pFastBacBD-CDC37 BRAF D437-K722-X, V600E; His6 with pFastBac HT leader (TEV site) (N); made in house; host or cells: Sf9 (baculovirus; chaperone CDC37 co-expressed)

Jnk3 = molecular target: T9, Jnk3 (Homo sapiens, UniProt P53779); test: AlphaScreen kinase assay, Jnk3; conditions: read-out: IC50, activity toward kinase Jnk3
T9 construct: purchased Upstate Biotechnology

Src = molecular target: T10, Src (Homo sapiens, UniProt P12931); test: AlphaScreen kinase assay, Src; conditions: read-out: IC50, activity toward kinase Src
T10 construct: P1144. pET-N6 BI-PTP SRC V86-L536-X; made in house

Fms = molecular target: T11, Fms (Homo sapiens, UniProt P07333); test: AlphaScreen kinase assay, Fms; conditions: read-out: IC50, activity toward kinase Fms
T11 construct: purchased Upstate Biotechnology

Fak = molecular target: T12, Fak (Homo sapiens, UniProt Q05397); test: AlphaScreen kinase assay, Fak; conditions: read-out: IC50, activity toward kinase Fak
T12 construct: P1358.pFastBacHtb FAK S411-Q686-X; His6 with pFastBacHTb leader (TEV site) (N); made in house; host or cells: Sf9 (baculovirus)

Btk = molecular target: T13, Btk (Homo sapiens, UniProt Q06187); test: Z'-Lyte FRET kinase assay (Invitrogen), Btk; conditions: read-out: IC50, activity toward kinase Btk
T13 construct: purchased Invitrogen (assay run by Invitrogen)

c-Raf-1 = molecular target: T14, c-Raf-1 (Homo sapiens, UniProt P04049); test: AlphaScreen kinase assay, c-Raf-1; conditions: read-out: IC50, activity toward kinase c-Raf-1
T14 construct: purchased Upstate Biotechnology

B-Raf = molecular target: T15, B-Raf (Homo sapiens, UniProt P15056); test: AlphaScreen kinase assay, B-Raf; conditions: read-out: IC50, activity toward kinase B-Raf
T15 construct: purchased Upstate Biotechnology

Jnk1 = molecular target: T16, Jnk1 (Homo sapiens, UniProt P45983); test: AlphaScreen kinase assay, Jnk1; conditions: read-out: IC50, activity toward kinase Jnk1
T16 construct: purchased Upstate Biotechnology

Jnk2 = molecular target: T17, Jnk2 (Homo sapiens, UniProt P45984); test: AlphaScreen kinase assay, Jnk2; conditions: read-out: IC50, activity toward kinase Jnk2
T17 construct: purchased Roche Protein Expression Group (Indianapolis, IN)
Outline: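 Peptide phosphorylation detected by proximity: streptavidin donor beads bind biotinylated substrate, acceptor beads carry antibody to phosphorylated substrate, singlet oxygen transfer gives emission. Dose-response over 8 points (1:3 steps); stocks 20 mM in DMSO.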

Yes = molecular target: T18, Yes (Homo sapiens, UniProt P07947); test: Z'-Lyte FRET kinase assay (Invitrogen), Yes; conditions: read-out: IC50, activity toward kinase Yes
T18 construct: purchased Invitrogen (Carlsbad, Calif.), screening service
Outline: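 Each kinase phosphorylated a FRET peptide (2 μM) at 10 μM ATP in 50 mM HEPES pH 7.5, 50 mM MgCl2, 5 mM EGTA, 0.05% BRIJ-35 with 1% DMSO, 1 h at room temperature. After a 1 h protease development step, coumarin/fluorescein emission ratio was read across serial compound dilutions.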

T1 sequence (P10721 with tags, fused parts or gaps): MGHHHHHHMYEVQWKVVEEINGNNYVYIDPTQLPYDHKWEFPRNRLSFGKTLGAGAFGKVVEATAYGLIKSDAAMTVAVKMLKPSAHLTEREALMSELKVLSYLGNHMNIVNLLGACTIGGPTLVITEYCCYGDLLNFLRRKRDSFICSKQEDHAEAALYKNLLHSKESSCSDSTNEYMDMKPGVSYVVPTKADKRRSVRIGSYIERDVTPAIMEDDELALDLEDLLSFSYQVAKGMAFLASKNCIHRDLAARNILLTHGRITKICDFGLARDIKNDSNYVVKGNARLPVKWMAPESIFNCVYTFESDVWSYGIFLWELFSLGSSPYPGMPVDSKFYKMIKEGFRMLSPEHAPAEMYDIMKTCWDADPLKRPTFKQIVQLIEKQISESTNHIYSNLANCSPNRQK
T9 sequence (P53779 whole entry): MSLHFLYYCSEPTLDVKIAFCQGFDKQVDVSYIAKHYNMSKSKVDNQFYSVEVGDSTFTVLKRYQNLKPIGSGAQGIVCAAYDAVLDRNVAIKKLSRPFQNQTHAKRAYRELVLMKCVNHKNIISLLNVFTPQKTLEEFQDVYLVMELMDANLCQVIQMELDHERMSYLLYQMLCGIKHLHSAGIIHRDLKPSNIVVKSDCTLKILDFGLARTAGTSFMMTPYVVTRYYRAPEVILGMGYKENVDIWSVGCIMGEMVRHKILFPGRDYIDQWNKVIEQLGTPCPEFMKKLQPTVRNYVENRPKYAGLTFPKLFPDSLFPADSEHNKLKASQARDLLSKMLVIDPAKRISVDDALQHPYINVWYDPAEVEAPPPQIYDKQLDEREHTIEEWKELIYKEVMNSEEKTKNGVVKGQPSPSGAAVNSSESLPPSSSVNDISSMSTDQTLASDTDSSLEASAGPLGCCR
T11 sequence (P07333 20-972): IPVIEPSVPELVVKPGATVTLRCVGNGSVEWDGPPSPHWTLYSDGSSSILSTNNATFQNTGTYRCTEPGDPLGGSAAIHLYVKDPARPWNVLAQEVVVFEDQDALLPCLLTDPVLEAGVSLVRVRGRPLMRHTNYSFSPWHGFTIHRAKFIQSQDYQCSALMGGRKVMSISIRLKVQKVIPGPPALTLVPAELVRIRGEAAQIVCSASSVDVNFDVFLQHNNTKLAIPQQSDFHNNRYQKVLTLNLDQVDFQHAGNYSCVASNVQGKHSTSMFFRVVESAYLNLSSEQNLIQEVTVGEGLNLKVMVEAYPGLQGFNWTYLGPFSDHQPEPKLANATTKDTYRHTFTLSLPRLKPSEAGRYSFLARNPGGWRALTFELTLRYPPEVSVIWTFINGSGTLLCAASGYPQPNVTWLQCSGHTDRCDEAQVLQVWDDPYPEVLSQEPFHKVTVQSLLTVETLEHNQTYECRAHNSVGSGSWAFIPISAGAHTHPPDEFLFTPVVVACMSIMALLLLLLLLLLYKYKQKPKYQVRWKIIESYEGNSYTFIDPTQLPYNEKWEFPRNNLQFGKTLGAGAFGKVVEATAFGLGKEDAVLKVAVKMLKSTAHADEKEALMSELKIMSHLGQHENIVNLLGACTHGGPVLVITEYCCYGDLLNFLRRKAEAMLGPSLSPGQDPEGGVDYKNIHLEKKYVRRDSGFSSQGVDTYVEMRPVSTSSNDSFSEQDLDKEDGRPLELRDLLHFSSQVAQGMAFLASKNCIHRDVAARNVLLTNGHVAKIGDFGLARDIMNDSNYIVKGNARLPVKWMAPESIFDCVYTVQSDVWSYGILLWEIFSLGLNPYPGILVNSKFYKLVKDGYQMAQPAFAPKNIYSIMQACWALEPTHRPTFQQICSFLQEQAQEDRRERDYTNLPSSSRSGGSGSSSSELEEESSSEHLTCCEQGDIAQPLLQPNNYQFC
T3 sequence (P35968 20-1356): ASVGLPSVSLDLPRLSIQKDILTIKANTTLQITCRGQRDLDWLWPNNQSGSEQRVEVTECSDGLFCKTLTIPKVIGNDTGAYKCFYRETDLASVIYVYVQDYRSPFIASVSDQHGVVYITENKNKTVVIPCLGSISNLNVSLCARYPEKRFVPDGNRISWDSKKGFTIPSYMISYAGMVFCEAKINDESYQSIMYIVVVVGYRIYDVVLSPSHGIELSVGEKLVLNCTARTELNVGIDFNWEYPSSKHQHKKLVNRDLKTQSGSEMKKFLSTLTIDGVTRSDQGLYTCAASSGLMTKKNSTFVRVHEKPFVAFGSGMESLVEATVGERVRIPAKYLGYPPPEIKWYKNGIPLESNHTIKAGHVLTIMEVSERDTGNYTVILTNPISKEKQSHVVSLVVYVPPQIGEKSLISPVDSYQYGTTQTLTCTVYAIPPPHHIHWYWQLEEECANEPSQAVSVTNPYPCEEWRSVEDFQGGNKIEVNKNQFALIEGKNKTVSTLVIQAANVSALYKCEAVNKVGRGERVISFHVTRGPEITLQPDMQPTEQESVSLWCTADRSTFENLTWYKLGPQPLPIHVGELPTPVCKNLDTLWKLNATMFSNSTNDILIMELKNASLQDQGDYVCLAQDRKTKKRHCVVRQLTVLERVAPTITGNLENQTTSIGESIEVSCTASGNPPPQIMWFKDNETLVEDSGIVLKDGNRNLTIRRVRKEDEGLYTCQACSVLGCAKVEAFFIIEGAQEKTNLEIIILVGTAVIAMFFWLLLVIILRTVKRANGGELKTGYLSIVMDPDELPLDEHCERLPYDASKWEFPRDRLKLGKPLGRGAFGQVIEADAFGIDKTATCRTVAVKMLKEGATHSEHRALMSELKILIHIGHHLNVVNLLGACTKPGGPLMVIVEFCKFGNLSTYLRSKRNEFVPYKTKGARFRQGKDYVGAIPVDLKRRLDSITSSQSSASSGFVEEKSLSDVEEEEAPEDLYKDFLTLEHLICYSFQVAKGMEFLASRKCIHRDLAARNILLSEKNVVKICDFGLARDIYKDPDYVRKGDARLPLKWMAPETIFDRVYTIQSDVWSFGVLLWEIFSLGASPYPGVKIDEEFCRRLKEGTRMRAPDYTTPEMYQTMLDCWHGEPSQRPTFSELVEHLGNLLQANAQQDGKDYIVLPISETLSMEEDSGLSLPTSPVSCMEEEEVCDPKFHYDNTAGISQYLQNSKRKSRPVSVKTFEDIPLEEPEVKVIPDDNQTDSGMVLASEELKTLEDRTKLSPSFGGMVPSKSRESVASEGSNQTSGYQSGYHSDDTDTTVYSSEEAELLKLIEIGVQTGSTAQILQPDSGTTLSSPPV
T4 sequence (P35916 25-1363): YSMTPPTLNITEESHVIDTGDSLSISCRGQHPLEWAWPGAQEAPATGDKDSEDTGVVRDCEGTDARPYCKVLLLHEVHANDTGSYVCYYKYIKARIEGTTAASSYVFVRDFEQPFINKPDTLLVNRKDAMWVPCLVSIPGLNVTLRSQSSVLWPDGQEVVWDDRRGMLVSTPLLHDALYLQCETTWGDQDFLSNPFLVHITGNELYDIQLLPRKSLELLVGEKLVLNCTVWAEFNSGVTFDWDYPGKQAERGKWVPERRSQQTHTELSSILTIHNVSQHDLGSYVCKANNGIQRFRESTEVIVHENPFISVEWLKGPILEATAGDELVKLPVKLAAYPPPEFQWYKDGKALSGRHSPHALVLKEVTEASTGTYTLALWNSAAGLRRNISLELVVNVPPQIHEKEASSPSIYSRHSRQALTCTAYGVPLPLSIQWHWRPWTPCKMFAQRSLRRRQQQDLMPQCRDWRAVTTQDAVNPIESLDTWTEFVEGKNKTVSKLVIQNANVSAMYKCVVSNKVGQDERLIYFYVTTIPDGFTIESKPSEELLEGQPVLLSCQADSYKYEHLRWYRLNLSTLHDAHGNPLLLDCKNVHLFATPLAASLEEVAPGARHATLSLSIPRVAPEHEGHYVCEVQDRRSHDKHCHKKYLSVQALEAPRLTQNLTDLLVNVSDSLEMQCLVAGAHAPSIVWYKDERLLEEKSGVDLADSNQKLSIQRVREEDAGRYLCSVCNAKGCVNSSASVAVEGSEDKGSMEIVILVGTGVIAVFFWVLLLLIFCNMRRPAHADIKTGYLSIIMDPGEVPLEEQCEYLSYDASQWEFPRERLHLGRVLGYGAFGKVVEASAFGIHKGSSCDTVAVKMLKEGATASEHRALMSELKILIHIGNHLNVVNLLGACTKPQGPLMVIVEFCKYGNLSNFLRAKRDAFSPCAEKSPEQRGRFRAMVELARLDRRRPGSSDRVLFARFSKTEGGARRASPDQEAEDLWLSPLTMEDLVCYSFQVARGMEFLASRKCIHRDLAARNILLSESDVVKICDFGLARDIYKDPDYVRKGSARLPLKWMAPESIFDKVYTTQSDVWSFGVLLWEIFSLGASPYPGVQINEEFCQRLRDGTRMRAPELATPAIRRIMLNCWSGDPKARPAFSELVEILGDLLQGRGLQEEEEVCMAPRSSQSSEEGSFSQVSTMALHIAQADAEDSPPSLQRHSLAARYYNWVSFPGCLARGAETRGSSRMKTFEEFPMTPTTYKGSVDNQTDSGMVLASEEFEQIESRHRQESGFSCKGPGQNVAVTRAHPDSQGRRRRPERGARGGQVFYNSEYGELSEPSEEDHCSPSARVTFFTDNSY
T8 sequence (P15056 with tags, fused parts or gaps V600E): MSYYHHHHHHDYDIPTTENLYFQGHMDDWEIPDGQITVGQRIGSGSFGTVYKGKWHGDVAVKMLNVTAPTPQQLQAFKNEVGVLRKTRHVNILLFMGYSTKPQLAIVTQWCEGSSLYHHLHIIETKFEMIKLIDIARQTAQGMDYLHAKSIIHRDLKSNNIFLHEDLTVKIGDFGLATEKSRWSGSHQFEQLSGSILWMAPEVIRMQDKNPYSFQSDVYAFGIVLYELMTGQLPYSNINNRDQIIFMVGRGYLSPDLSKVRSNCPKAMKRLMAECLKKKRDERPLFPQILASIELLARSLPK
T12 sequence (Q05397 411-686): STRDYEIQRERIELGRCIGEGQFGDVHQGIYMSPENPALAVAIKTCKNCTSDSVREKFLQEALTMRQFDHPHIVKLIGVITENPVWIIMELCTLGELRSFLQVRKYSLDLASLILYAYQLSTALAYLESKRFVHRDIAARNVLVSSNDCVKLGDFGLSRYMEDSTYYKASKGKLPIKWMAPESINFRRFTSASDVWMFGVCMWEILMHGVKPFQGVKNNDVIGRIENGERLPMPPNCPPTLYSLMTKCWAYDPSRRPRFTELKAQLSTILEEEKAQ

IC50 (Kit) [µM] | IC50 (Ret) [µM] | IC50 (Kdr) [µM] | IC50 (Flt4) [µM] | IC50 (FGFR1) [µM] | IC50 (Flt1) [µM] | IC50 (B-Raf V600E) [µM] | Structure (SMILES) | further results
≤ 10 | ≤ 10 |  | ≤ 10 |  |  | ≤ 10 | O=C(c1ccc(F)cc1F)c1c[nH]c2nccc(-c3cc(F)cc(F)c3)c12 [Compound P-0352] | 
≤ 10 | ≤ 10 | ≤ 10 | ≤ 10 | ≤ 10 | ≤ 10 | ≤ 10 | COc1ccc(C(=O)c2c[nH]c3ncc(-c4cccs4)cc23)cc1 [Compound P-0771] | IC50 (Src): ≤ 10 µM; IC50 (Fms): ≤ 10 µM
≤ 10 | ≤ 10 |  | ≤ 10 | ≤ 10 | ≤ 10 | ≤ 10 | COc1cccc(C(=O)c2c[nH]c3ncc(-c4ccsc4)cc23)c1 [Compound P-0211] | IC50 (Jnk3): ≤ 10 µM; IC50 (Fms): ≤ 10 µM; IC50 (Fak): ≤ 10 µM
≤ 10 | ≤ 10 | ≤ 10 | ≤ 10 |  |  |  | COc1cccc(C(=O)c2c[nH]c3ncc(-c4cccc(C(N)=O)c4)cc23)c1 [Compound P-0190] | IC50 (Jnk3): ≤ 10 µM
≤ 10 | ≤ 10 | ≤ 10 | ≤ 10 | ≤ 10 |  | ≤ 10 | O=C(c1ccc(Cl)cc1)c1c[nH]c2ncc(-c3cccnc3)cc12 [Compound P-0418] | IC50 (Fms): ≤ 10 µM; IC50 (Btk): ≤ 10 µM; IC50 (c-Raf-1): ≤ 10 µM
≤ 10 | ≤ 10 | ≤ 10 | ≤ 10 |  |  |  | CS(=O)(=O)Nc1cccc(-c2cnc3[nH]cc(C(=O)c4ccc(Cl)cc4)c3c2)c1 [Compound P-0813] | 
 | ≤ 10 |  | ≤ 10 | ≤ 10 |  |  | O=C(c1ccccc1)c1c[nH]c2nccc(-c3cc(F)cc(F)c3)c12 [Compound P-0452] | 
≤ 10 | ≤ 10 | ≤ 10 | ≤ 10 | ≤ 10 |  |  | COc1cccc(C(=O)c2c[nH]c3ncc(-c4cccs4)cc23)c1 [Compound P-0204] | IC50 (Jnk1): ≤ 10 µM; IC50 (Jnk2): ≤ 10 µM; IC50 (Jnk3): ≤ 10 µM
≤ 10 | ≤ 10 | ≤ 10 | ≤ 10 | ≤ 10 |  | ≤ 10 | O=C(c1ccccc1F)c1c[nH]c2nccc(-c3cc(F)cc(F)c3)c12 [Compound P-0097] | IC50 (Yes): ≤ 10 µM; IC50 (Btk): ≤ 10 µM
≤ 10 | ≤ 10 | ≤ 10 | ≤ 10 | ≤ 10 | ≤ 10 | ≤ 10 | CC(=O)Nc1cccc(-c2cnc3[nH]cc(C(=O)c4ccccc4F)c3c2)c1 [Compound P-0668] | IC50 (Jnk1): ≤ 10 µM; IC50 (Jnk3): ≤ 10 µM; IC50 (Src): ≤ 10 µM; IC50 (Fak): ≤ 10 µM

The next lines start with the molecule.

Structure (SMILES) | IC50 (Kit) [µM] | IC50 (Ret) [µM] | IC50 (Kdr) [µM] | IC50 (Flt4) [µM] | IC50 (FGFR1) [µM] | IC50 (Flt1) [µM] | IC50 (B-Raf V600E) [µM] | further results
COc1cccc(C(=O)c2c[nH]c3ncc(-c4cccs4)cc23)c1F [Compound P-0206] | ≤ 10 | ≤ 10 | ≤ 10 | ≤ 10 | ≤ 10 | ≤ 10 |  | IC50 (Stk6): ≤ 10 µM
Cc1cc(C(=O)c2c[nH]c3ncc(-c4cccc(C(N)=O)c4)cc23)nn1C [Compound P-0737] | ≤ 10 | ≤ 10 | ≤ 10 | ≤ 10 | ≤ 10 | ≤ 10 |  | 
CC(=O)Nc1cccc(-c2cnc3[nH]cc(C(=O)c4cc(C)on4)c3c2)c1 [Compound P-0632] | ≤ 10 | ≤ 10 | ≤ 10 | ≤ 10 | ≤ 10 | ≤ 10 |  | IC50 (Jnk3): ≤ 10 µM
COc1ccc(C(=O)c2c[nH]c3ncc(Br)cc23)cc1 [Compound P-0617] | ≤ 10 |  |  | ≤ 10 |  |  |  | 
O=S(=O)(c1ccccc1)c1c[nH]c2ncccc12 [Compound P-0544] |  |  |  | ≤ 10 |  |  |  | 
COc1cccc(Cc2c[nH]c3ncc(-c4cc5ccccc5[nH]4)cc23)c1 [Compound P-0335] |  |  |  | ≤ 10 | ≤ 10 |  |  | 
COc1cccc(C(=O)c2c[nH]c3ncc(Br)cc23)c1F [Compound P-0265, (5-bromo-1H-pyrrolo[2,3-b]pyridin-3-yl)-(2-fluoro-3-methoxy-phenyl)-methanone] | ≤ 10 | ≤ 10 |  | ≤ 10 | ≤ 10 |  | ≤ 10 | IC50 (B-Raf): ≤ 10 µM; IC50 (c-Raf-1): ≤ 10 µM
Nc1cccc(-c2cnc3[nH]cc(C(=O)c4cccc(Cl)c4Cl)c3c2)c1 [Compound P-0679] | ≤ 10 | ≤ 10 | ≤ 10 | ≤ 10 | ≤ 10 | ≤ 10 | ≤ 10 | 
